Values of other authors, collected in patent US5030442A (priority 1989, dated 1991).
“Also recorded” adds a separate entry of the source.

Conditions: topical form, initial clinical studies

## Nc1cc(N2CCCCC2)nc(N)[n+]1[O-] [minoxidil]
  hair growth response (in words): reversal of male pattern baldness is most favorable in younger men, and where recent hair loss has occurred; also recorded: new hair growth is observed in a significant percentage of older men and/or where in cases of long-term baldness
